From the METLIN SMRT retention time set (Domingo-Almenara et al. 2019)

Experiment: gradient 5% acetonitrile 3 min, to 50% in 2 min, to 85% in 15 min, held 3 min, 100 µL/min
Conditions: column: Zorbax Extend-C18 2.1 x 50 mm; eluents: water / acetonitrile, 0.1% formic acid
How it was run: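 Each retention time is based on an adduct peak selected computationally and verified by manual inspection. Measurements used HPLC–quadrupole time-of-flight mass spectrometry in positive and negative ionization mode on mixtures of ~100 pure standards. Chromatography ran on a Zorbax Extend-C18 column (2.1 × 50 mm, 1.8 μm) at 100 μL/min with water and acetonitrile, each containing 0.1% formic acid, and dead and dwell volumes of 40 μL and 900 μL.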

SMILES	RP-LC retention time
CCOC(=O)Cc1csc(NC(=O)Cn2nc3c(cc2=O)CCCCC3)n1	769 s
Nc1ccc(NC(=O)c2ccc(C(F)(F)F)cc2)nc1	693 s
O=C(CN1CCN(C(=O)Nc2ccc(Br)cc2)CC1=O)NC1CCCCCC1	786 s
Cc1ccc(NC(=O)C2CCN(C(=O)c3ncn4c3COC(c3ccccc3)C4)CC2)cc1 (configuration not stated)	626 s
Cc1ccc(NC(=O)CSC2=C(C#N)C(c3cccs3)CC(=O)N2)cc1Cl (configuration not stated)	915 s
O=C(Nc1cc(F)ccc1F)C1CCCN(c2nc3ccccc3nc2C(F)(F)F)C1 (configuration not stated)	1270 s
CCc1nc(-c2csc(S(=O)(=O)N3CCCC(C(=O)Nc4ccc(F)cc4F)C3)c2)no1 (configuration not stated)	1060 s
O=C(C1CCN(S(=O)(=O)c2cc(-c3noc(C4CCC4)n3)cs2)CC1)N1CCOCC1	863 s
Cc1noc(-c2nn(C)c3c2CN(C(=O)C2(c4ccccc4)CC2)CC3)n1	757 s
O=C(NCc1ccc(-c2noc(-c3ccc(F)cc3F)n2)s1)C1CC1	893 s
O=C(c1cc2ccccc2[nH]1)N1CCN(c2cc(-c3cccnc3)[nH]n2)CC1	630 s
Cc1ccn2c(NC(=O)c3ccc(Cl)cc3)c(-c3ccc(F)cc3)nc2c1	693 s
O=C1NC2(CCN(C(=O)Nc3ccccc3F)CC2)N=C1c1cccc(Cl)c1	839 s
CSc1ccc(CNC(=O)CSc2nccc(N3CCN(c4cc(C)ccc4C)CC3)n2)cc1	921 s
CCN1CCN(C(=O)CN2C(=O)C3CCCCN3c3ccc(C(=O)N4CCCCC4)cc32)CC1 (configuration not stated)	632 s
COc1ccc(-c2noc(C3CC(=O)N(c4cccc(Cl)c4)C3)n2)cc1OC (configuration not stated)	934 s
CN(C)CCC(c1ccccc1)c1ccccn1 (configuration not stated)	580 s
Cc1cnc(C2CCN(S(=O)(=O)c3ccccc3)C2)n1C(C)C (configuration not stated)	564 s
O=C(Cc1ccc(F)cc1)N1CCc2cc(-c3ccno3)ccc21	940 s
CC1(C)CC(=O)c2cn(-c3ccccc3)c(=O)c(C(=O)N3CCN(C4CCCCC4)CC3)c2C1	586 s

SMILES	RP-LC retention time
CN(CCOC(=O)c1cccs1)Cc1ccccc1	623 s
Cc1[nH]c(C)c(S(=O)(=O)N2CCC(C(=O)N3CCc4ccccc43)CC2)c1C(=O)N1CCCC1	716 s
CCn1nc(C)c(CNC(=O)Nc2cccc(C(=O)OC)c2)c1C	663 s
CC(=O)c1ccc(N2CCN(C(=O)C(=O)c3cccn3C)CC2)cc1	735 s
O=C(NCc1csc(C2CCN(C(=O)c3ccc(F)c(F)c3)CC2)n1)C1CC1	705 s
CCOC(=O)c1cnc2c(-c3ccc(F)cc3)c(COC)nn2c1N	981 s
CCCS(=O)(=O)c1nc2ccc(NS(=O)(=O)c3ccccc3)cc2s1	879 s
Cc1ccsc1C(=O)NC1CCN(c2cc(-c3ccc(F)cc3)[nH]n2)C1 (configuration not stated)	670 s
Cn1c(CNc2nc3ccncc3n(Cc3ccccc3)c2=O)nc2ccccc21	571 s
CC(=O)N[C@@H](Cc1c[nH]c2ccccc12)C(=O)OCc1cc(C(F)(F)F)cc(C(F)(F)F)c1	1100 s
O=C1CCCc2cc(S(=O)(=O)NCCCN3CCN(c4ccccc4F)CC3)ccc2N1	621 s
COc1ccc(NC(=O)N2CCC(c3nc(C(=O)N4CCOCC4)c(C)o3)CC2)cc1	660 s
COC(=O)c1cccc(NC(=O)N2C[C@H]3C[C@@H](C2)c2cccc(=O)n2C3)c1	636 s
CC(C)Cn1ccc2c(cc(C(=O)Nc3ccc(Br)cc3)n2C)c1=O	979 s
Cc1cc(C(=O)N2CC(F)(F)C[C@H]2c2nc(C)no2)on1	723 s
O=C(NCCOc1ccc(-c2ccccc2)nn1)c1ccc(=O)[nH]n1	600 s
CNC(=O)c1nn(-c2ccc(F)c(F)c2)c(OC)cc1=O	651 s
Cc1nc(-c2cc(S(=O)(=O)Nc3cccc(F)c3)c(C)s2)sc1C	1060 s
CCC(C)NC(=O)c1cnn(-c2cc(-c3nc(C4CC4)no3)ccn2)c1C (configuration not stated)	973 s
O=C(NCC1CCCCC1)c1ccc(NC(=O)C2CCC2)cc1N1CCOCC1	930 s

The next lines start with the values.

RP-LC retention time	SMILES
608 s	Cn1cccc1C(=O)NC(C)(C)c1nc2c(c(C(N)=O)n1)OCCO2
886 s	O=C(c1cn(-c2cc(N3CCSCC3)ncn2)cn1)N1CCc2ccccc2C1
696 s	O=C(Nc1ccc(F)cc1F)C1CCN(C(=O)c2cccn2-c2cccnc2)CC1
1010 s	Cc1cc(C)c(CNC(=O)c2nnc(-c3ccc(S(=O)(=O)N(C)C)cc3)o2)c(C)c1
809 s	COc1cccc(NC(=O)C2c3cc(OC)c(OC)cc3C(=O)N3CCc4ccccc4C23)c1 (configuration not stated)
726 s	CN(C)C(=O)c1ccc2c(c1)N(CC(=O)NCCCc1ccccc1)C(=O)CS2
816 s	Cc1cc(-c2nnc(C3CCC3)o2)c(C)n1CC(=O)NCc1ccc2c(c1)OCO2
1050 s	CCOC(=O)c1cccc(NC(=O)c2cnc(-c3ccc(C)cc3)nc2-c2ccncc2)c1
696 s	CCC(=O)N1CCc2cc(N3CC(C(=O)Nc4cccc(C(C)=O)c4)CC3=O)ccc21 (configuration not stated)
608 s	O=C(Cc1cccs1)NC1CCN(c2cc(N3CCCC3)cnn2)C1 (configuration not stated)
621 s	CO[C@H]1C(=O)N(C(C)C)[C@H]1C1CCN(C(=O)c2cnccn2)CC1
725 s	COc1cccc2cc(-c3nnc(NC(=O)c4ccc5ncsc5c4)o3)oc12
572 s	CC(=O)N1CC(C)Oc2ccc(S(=O)(=O)N3CCC(c4ccncc4)CC3)cc21 (configuration not stated)
924 s	Cc1ccccc1NS(=O)(=O)c1ccc(-c2c(C)noc2C)cc1
978 s	CCCn1c(=O)sc2cc(S(=O)(=O)N3CCC(C(=O)Nc4cccc(OC)c4)CC3)ccc21
576 s	CCn1c(N2CCN(C(=O)Nc3cccc(C(C)=O)c3)CC2)nc2ccccc21
935 s	COc1ccc(NC(=O)N2c3ccccc3CC2c2nc(C(C)C)no2)cc1OC (configuration not stated)
863 s	Cc1ccc(CNC(=O)c2nnc(-c3ccc(S(=O)(=O)N4CCOCC4)cc3)o2)cc1
707 s	COc1cc(OC)cc(C(=O)N2CCC3(C2)C(=O)Nc2ccccc23)c1 (configuration not stated)
868 s	O=C(CSC1CCc2ccccc2NC1=O)NCc1ccc(Cl)cc1Cl (configuration not stated)
758 s	CC(C)CCNC(=O)c1cc2n(n1)CC(C)(C(=O)NCc1ccccc1)N(C)C2=O (configuration not stated)
813 s	Cc1nnsc1C(=O)Nc1nnc(SCC(=O)Nc2ccc(F)c(Cl)c2)s1
608 s	O=C(NCC1CCCO1)C1COC2(CCN(C(=O)C3CC3)CC2)N1C(=O)c1ccccc1 (configuration not stated)
848 s	CCOc1ccc(N2CC(C#N)=C3c4cc(OC)c(OC)cc4CCN3C2)cc1

RP-LC retention time	SMILES
778 s	CCS(=O)(=O)N1CC(=O)N(c2ccc(F)cc2)C(C)(C(=O)NCc2ccccc2)C1 (configuration not stated)
668 s	O=C(NCC1CC(=O)N(Cc2ccc(F)cc2)C1)Nc1cccs1 (configuration not stated)
561 s	CN(CCc1ccccn1)C(=O)CCC1CCCN(c2cc(NC3CC3)ncn2)C1 (configuration not stated)
902 s	CC(C)CCNC(=O)CCC(=O)N1CC2CCCN2c2ccccc21 (configuration not stated)
948 s	CCOc1ccc(C2c3[nH]c4ccccc4c3CCN2C(=O)c2ccncc2)cc1 (configuration not stated)
735 s	O=C(Nc1cccc(Cl)c1)Nc1ccc2nncn2c1
689 s	COCCc1noc([C@@H]2CC(F)(F)CN2C(=O)c2ocnc2C)n1
1030 s	CCN(CC)S(=O)(=O)c1ccc2c(c1)N(CC(=O)NCc1ccc(C)cc1)C(=O)C1CCCCN21 (configuration not stated)
973 s	COc1ccc(Cl)cc1N1CC(c2nc(-c3ccccc3)no2)CC1=O (configuration not stated)
1060 s	O=C(CN1CCCCC1c1nc(-c2cccc(F)c2)no1)NCc1cccs1 (configuration not stated)
732 s	Cc1noc(C)c1CC(=O)N1CCc2ccccc2[C@H]1C
930 s	Cc1ccc(CNC(=O)Cn2cnc3c(c(C)c(C)n3-c3ccc(Cl)cc3)c2=O)o1
1330 s	CCn1cc(-c2nc(C(=O)Nc3ccc(Cl)cc3)cs2)c2cccnc21
814 s	Cc1ccccc1NC(=O)Cn1c(=O)n(-c2ccc(F)cc2)c2ncccc21
569 s	O=C(O)c1cnc(N2CCOCC2)nc1-c1cccnc1
643 s	O=C([C@@H]1C[C@H](F)CN1S(=O)(=O)c1ccccc1)N1CCOCC1
901 s	CCc1nn2c(CNS(=O)(=O)c3ccccc3)c(-c3ccccc3)nc2s1
890 s	Cc1ccc(-n2nc(CO)c(C(=O)NC3CC3)n2)cc1C
729 s	CCn1cnc(S(=O)(=O)N2CCC(C(=O)N3CCc4ccccc4C3)CC2)c1
762 s	CCCNC(=O)C1CCCN(c2nc3ncn(CC(=O)Nc4ccc5c(c4)CCC5)c(=O)c3s2)C1 (configuration not stated)
784 s	CN(CCc1noc(-c2ccc(C(=O)N3CCCC3)cc2)n1)C(=O)c1c(F)cccc1F
782 s	O=C(CN1C(=O)COc2ccc(C(=O)N3CCCCC3)cc21)NC1CCCCCC1
781 s	Cc1oc(C2CCN(S(=O)(=O)c3ccccc3F)CC2)nc1C(=O)N(C)C
